Source: patent US11999806B2, “Broad-spectrum polypeptide against enterovirus and application thereof” (WUHAN INSTITUTE OF VIROLOGY, CHINESE ACADEMY OF SCIENCES, priority 2018, dated 2024)
“And” between values parts separate entries of the source, which are not always exact repeats. Identical values can stand only once. Non-standard residues stand in square brackets, D forms with d. Residues, ends and D or L forms follow the SMILES beside them.

What was measured:
[1] = Cytotoxicity by CCK-8 in RD cells; format: cell-based; settings: human, RD cells
RD cells = assay: Cytotoxicity by CCK-8 in RD cells; format: cell-based; settings: RD cells; for Cell viability (%): 24 h

For `CC(=O)N[C@H](CCCNC(=N)N)C(=O)N[C@H](CS)C(=O)N[C@H](Cc1ccc(O)cc1)C(=O)N[C@H](CCC(N)=O)C(=O)N[C@H](CCCNC(=N)N)C(=O)N[C@@H](C(=O)N[C@H](CCC(=O)O)C(=O)N[C@H](CCC(=O)O)C(=O)N1CCC[C@@H]1C(=O)N1CCC[C@@H]1C(=O)N[C@H](CCCNC(=N)N)C(=O)N[C@H](CCCNC(=N)N)C(=O)N[C@H](CCCNC(=N)N)C(=O)N[C@H](CCC(N)=O)C(=O)N[C@H](CCCNC(=N)N)C(=O)N[C@H](CCCNC(=N)N)C(=O)N[C@H](CCCCN)C(=O)N[C@H](CCCCN)C(=O)N[C@H](CCCNC(=N)N)C(=O)NCC(=O)N[C@H](Cc1ccc(O)cc1)C(N)=O)C(C)C` [ER-DRI] (Ac-[dR][dC][dY][dQ][dR][dV][dE][dE][dP][dP][dR][dR][dR][dQ][dR][dR][dK][dK][dR]G[dY]-NH2), the viability at 24 h, 0.46875 µM ([1]; 0.46875 μM, 24 h, read-out: Cell viability (%)) was 103%, the viability at 24 h, 2.34375 µM ([1]; 2.34375 μM, 24 h, read-out: Cell viability (%)) was 104% and the viability at 24 h, 4.6875 µM ([1]; 4.6875 μM, 24 h, read-out: Cell viability (%)) was 101%. The viability at 24 h, 9.375 µM ([1]; 9.375 μM, 24 h, read-out: Cell viability (%)) was 96%, the viability at 24 h, 18.75 µM ([1]; 18.75 μM, 24 h, read-out: Cell viability (%)) was 95.8% and the viability at 24 h, 37.5 µM ([1]; 37.5 μM, 24 h, read-out: Cell viability (%)) was 86%. It also gave a viability at 24 h, 75 µM ([1]; 75 μM, 24 h, read-out: Cell viability (%)) of 68.9%, a viability at 24 h, 150 µM ([1]; 150 μM, 24 h, read-out: Cell viability (%)) of 34% and a viability at 24 h, 300 µM ([1]; 300 μM, 24 h, read-out: Cell viability (%)) of 18.2%. For the same compound, the CC50 at 24 h ([1]; CCK-8, 24 h, Example 15, read-out: 50% cytotoxic concentration (CC50)) was 117 µM, the “Cell viability (%)” value (RD cells; 0.46875 μM) was 100.2% and 99.28% and the “Cell viability (%)” value (RD cells; 2.34375 μM) was 98.83% and 96.33%. The “Cell viability (%)” value (RD cells; 4.6875 μM) was 98.51% and 97.63%, the “Cell viability (%)” value (RD cells; 9.375 μM) was 96.79% and 94.15% and the “Cell viability (%)” value (RD cells; 18.75 μM) was 91.14% and 89.01%. The “Cell viability (%)” value (RD cells; 37.5 μM) was 86.77% and 86.97%, the “Cell viability (%)” value (RD cells; 75 μM) was 70.42% and 71.95% and the “Cell viability (%)” value (RD cells; 150 μM) was 34.62% and 34.08%. The “Cell viability (%)” value (RD cells; 300 μM) was 17.58% and 18.69% and the “cytotoxicity, result in words” value (RD cells; CCK-8, 24 h) was “very low toxicity”.
